# In US12365651B2, “Use of pirfenidone and derivatives for modulation of B lymphocyte activity and organ protection from acute tissue damage” (Washington University, priority 2017, dated 2025):
# Tested on: wild-type (WT) mice (C57BL/6J)
# Test: Closed-chest ischemia (90 minutes) reperfusion (I/R) injury
# Assay type: in vivo, mouse
# Protocol: Ischemia Reperfusion (I/R) Injury. Hearts from wild-type (WT) mice (C57BL/6J; purchased from Jackson Laboratory) were subjected to ischemia reperfusion (I/R) injury, using the closed-chest ischemia reperfusion model developed by Entman and colleagues (34), and modified as we have described previously (15). For the studies described herein we used 9-10 week old mice that were instrumented, then at 1 week post instrumentation were anesthetized with 1.5% isoflurane, and subjected to 90 minutes of closed-chest ischemia, followed by reperfusion for 2 weeks.
# In order to administer Pirfenidone, mice were fed powdered chow mixed with Pirfenidone (eNovation Chemicals, Bridgewater, NJ, USA, Cat #D404655) at 0.5% in weight or powdered chow alone. […] Unless specifically noted, mice were switched to a diet enriched with Pirfenidone 3 days prior to DT-induced injury or I/R-injury, and maintained on this diet throughout the duration of the experiments. In parallel studies, we fed mice normal chow prior to I/R injury and then administered Pirfenidone acutely at the time of cardiac injury. For these latter studies, mice were injected i.p. with diluent (200 μL phosphate-buffered solution [PBS]) or i.p. with Pirfenidone (200 μL of Pirfenidone [5 mg/mL] in PBS) after reperfusion and the morning after I/R injury (2 injections total). They were switched to Pirfenidone-enriched diet or control diet the evening of I/R injury and maintained on the same diet until completion of the experiment.
# Rosa26-DT Mlc2v-Cre and littermate control WT mice were euthanized 14 days after DT injection, and the hearts were removed and weighed to determine the heart-weight-to-tibia-length-ratio. WT mice were euthanized 14 days after I/R injury and the hearts were removed and weighed to determine the heart-weight-to-tibia-length-ratio. Hearts were processed, paraffin-embedded, and stained with hematoxylin/eosin and Masson's trichrome, as described (38). TUNEL staining was performed with the Millipore (Burlington, MA, USA) S7200 ApopTag Peroxidase In Situ Oligo Ligation Apoptosis Detection Kit according to the manufacturer's instruction.
# Image acquisition. Ultrasound examination of the cardiovascular system was performed using a Vevo 2100 Ultrasound System (VisualSonics Inc, Toronto, Ontario, Canada) equipped with a 30 MHz linear-array transducer, as previously described (15).
# Imaging Protocol. Mice were imaged by echocardiography at the time of ischemia and 2 weeks after reperfusion to evaluate LV structure and function, as described (39). The echocardiographer was blinded to study group assignment. Animals with poor acoustic windows or small areas at risk (<0.45) at the time of ischemia were excluded from further analysis.
# For flow cytometry experiments, mice were euthanized in a CO2 chamber and the hearts were perfused with cold PBS, carefully dissected from extracardiac tissue under a stereo microscope, finely minced, suspended in 3 ml of DMEM, and then digested with 120 U of DNAse (Sigma), 180 U of hyaluronidase (Sigma) and 1350 U of Collagenase (Sigma) for 60 minutes at 37Co. The digested material was filtered through 40 μm filters and pelleted by centrifugation (250×g for 3 minutes at 4° C.) in HBSS supplemented with 2% FCS+0.2% bovine serum albumin (BSA). Red blood cells were lysed in ACK lysis buffer (Invitrogen) for 15′ on ice and the remaining cells were resuspended in 300 μL of FACS buffer (PBS with 2% FCS and 2 mM EDTA). Cultured cells were collected for FACS analysis as described above and resuspended in 300 μL of FACS buffer. Samples were labeled with the fluorescently conjugated antibodies outlined in the table below. Cells were stained for 45 minutes on ice, and washed in FACS buffer prior to analysis. All antibodies from Biolegend were used at 0.2 μL per 300 μL sample, while antibodies from BD biosciences were used at 0.4 μL per 300 μL sample. FACS was performed on Beckton Dickinson analyzers (LSRII, Canto, X20 or Fortessa). […]
# [1] = Pirfenidone chow from 3 days prior to I/R, 2 weeks post I/R, vs control
# [2] = day 4 post I/R, Pirfenidone vs control
smiles,measurement,setting,value
"Cc1ccc(=O)n(-c2ccccc2)c1 [Pirfenidone, 5 methyl-1-phenyl-2-[H] pyridone]",LVEF,"B-cell depleted (anti-CD20) + Pirfenidone vs B-cell depleted mice, 2 weeks after I/R, p=0.15",no significant difference
same,LV mass,"B-cell depleted (anti-CD20) + Pirfenidone vs B-cell depleted mice, 2 weeks after I/R, p=0.21",no significant difference
same,LV end-diastolic volume,"B-cell depleted (anti-CD20) + Pirfenidone vs B-cell depleted mice, 2 weeks after I/R, p=0.40",no significant difference
same,percentage of trichrome positive myocardium,"B-cell depleted (anti-CD20) + Pirfenidone vs B-cell depleted mice, 2 weeks after I/R, p=0.43",no significant difference
same,heart-weight-to-tibia length ratio,"B-cell depleted (anti-CD20) + Pirfenidone vs B-cell depleted mice, 2 weeks after I/R, p=0.75",no significant difference
same,"area at risk (segmental wall motion score index, SWMSI)","Pirfenidone chow from 3 days prior to I/R vs control, p=0.68",no difference
same,LV end-diastolic volumes,[1],significant (p=0.02) decrease
same,LVEF,[1],trend (p=0.08) towards improvement
same,heart-weight-to-tibia length ratio,[1],significant decrease
same,LV mass measured by 2-D echocardiography,"Pirfenidone chow from 3 days prior to I/R, 2 weeks post I/R, vs control, p=0.03",significant decrease
same,percentage of myocardium exhibiting collagen staining with Masson's trichrome,"Pirfenidone chow from 3 days prior to I/R, at 2 weeks, vs normal chow, p=0.4",no significant difference
same,heart-weight/tibia length ratio,"acute administration of Pirfenidone after reperfusion then chow 14 days, vs diluent, p=0.015",significantly (p=0.015) reduced
same,area at risk,"acute administration of Pirfenidone after reperfusion, vs diluent, p=0.47",not different
same,CD19+ lymphocytes,[2],significant (p<0.001) reduction
same,subset of CD19+CD11b− B lymphocytes,[2],significant (p<0.001) reduction
same,number of myocardial CD19+ CD86high,"following I/R injury, day 4",significant (p<0.03) decrease
